# Measurements from PMC11489226 (Archives of Toxicology, 2024).
# Values joined by “and” are separate entries in the source; they are usually repeats but may differ in a detail not shown here. Equal entries are not always repeated.
# What was measured:
# HEK293CYP2A6 cells = assay: Micronucleus assay in HEK293CYP2A6 cells; assay type: cell-based, human; conditions: positive control, 10 µm, 24 h
# Protocol: Transgenic HEK293CYP2A6 and HEK293CYP2C9 cells were cultured in T25 flasks, with a seeding density of 1 × 10^6 cells per flask at 37 °C with 5% CO2. Cells were allowed to grow for 24 h geneticin free before PCBs were added (20 µM or 30 µM). Controls included cells grown in the presence of 1% ethanol (vol/vol) (negative control) or […] 4-nitroquinoline 1-oxide (positive control). Following further incubation for 24 h, cells were synchronized by adding Cytochalasin B. Subsequently, cells were harvested by trypsinization, centrifuged (2,000g, 10 min), and washed with DPBS (Dulbecco’s PBS). For hypotonic shock, 4 °C cold potassium chloride solution was added to the cells under agitation. Cells were completely resuspended and incubated at room temperature for 5 min. After centrifugation (2,500g, 10 min), the supernatant was discarded. To fix the cells, they were treated with a methanol/acetic acid solution (− 20 °C), with a minimum incubation time of 15 min at room temperature. Following centrifugation (2,500g, 10 min), the supernatant was discarded, and the fixation process was repeated at least three times. Finally, the samples were dissolved in 1 mL of fixative solution and incubated overnight at 4 °C. For analysis, two to three drops from each sample were placed on a glass slide, with intermittent heating of the slide. Subsequently, the cells were visualized with acridine orange, and using a fluorescence microscope (Leica DM6000B, Filter I3 450–490 nm), 2,000 cells per sample were counted.
# CYP2C8 = biological target: T1, CYP2C8 (Homo sapiens, UniProt P10632); assay: Metabolism in transgenic HEK293 cells expressing CYP2C8; assay type: in vitro ADME; conditions: 20 µM parent PCB, 24 h, supernatant
# T1 construct: V5-His (vector-encoded) (C); expressed in transfected cells
# T1 sequence (P10632 1-490): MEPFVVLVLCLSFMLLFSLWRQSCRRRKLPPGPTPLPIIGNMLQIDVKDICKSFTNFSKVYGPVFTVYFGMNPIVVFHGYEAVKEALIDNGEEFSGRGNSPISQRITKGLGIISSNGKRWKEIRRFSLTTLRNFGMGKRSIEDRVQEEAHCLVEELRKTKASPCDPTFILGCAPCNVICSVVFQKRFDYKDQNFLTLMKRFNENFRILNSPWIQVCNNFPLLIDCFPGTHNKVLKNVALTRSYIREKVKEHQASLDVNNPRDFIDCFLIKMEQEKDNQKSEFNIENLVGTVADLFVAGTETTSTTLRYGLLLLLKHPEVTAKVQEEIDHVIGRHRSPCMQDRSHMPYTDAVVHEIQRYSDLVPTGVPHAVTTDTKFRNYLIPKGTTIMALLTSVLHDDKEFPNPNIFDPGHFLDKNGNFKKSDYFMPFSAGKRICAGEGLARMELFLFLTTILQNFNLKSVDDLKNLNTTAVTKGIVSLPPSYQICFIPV
# Protocol: (§1) For the generation of transgenic cell lines, we used semi-adherent HEK293 cells (DSMZ, ACC305, human embryonic kidney cells) which were cultured on a daily basis in DMEM medium supplemented with 10% (FCS) and 1% penicillin/streptomycin. In a first step CYP1A2, CYP2C8, CYP2C9, CYP3A4, CYP2A6, and CYP2E1 cDNA were cloned into the plasmid pcDNATM3.1/V5-His TOPO® using human liver RNA as a template and using the following primers: CYP1A2 for5′-[…]-3′, CYP1A2 rev 5′-[…]-3′; CYP2C8 for 5′-[…]-3′, CYP2C8 rev 5′-[…]-3′; CYP2C9 for 5′-[…]-3′, CYP2C9 rev 5′-[…]-3′; CYP3A4 for 5′-[…]-3′, CYP3A4 rev 5′-[…]-3′, CYP2A6 for 5′-[…]-3′, CYP2A6 rev 5′-[…]-3′; CYP2E1 for 5′-[…]-3′, CYP2E1 rev 5′-[…]-3′. Final constructs were verified with Sanger DNA sequencing and restriction digestion. For transfection, 3 × 10^6 HEK293 cells were pre-incubated in a 10 cm dish in DMEM medium with 10% FCS, but without antibiotics, for 18 to 24 h. When the cells reached approximately 70% confluency, they were transfected using TransIT-LT1 transfection reagent (Biozol, Eiching, Germany). The TransIT-LT1 reagent was warmed to room temperature and vortexed. 1.63 mL Opti-MEM, 16.25 µL plasmid DNA (1 µg/µL), and 48.75 µL TransIT-LT1 reagent were mixed and incubated for 15 to 30 min. The mixture was then added dropwise to the medium of the cells, and the cells were incubated again at 37 °C and 5% CO2. After 24 h, the medium was replaced with standard medium and geneticin was added for selection (1 mg/mL). Cells were selected for 6–8 weeks in bulk culture, and single cell clones were obtained subsequently by limiting dilution. Each clone was checked for insertion by PCR using genomic DNA as a template.
# Parallel samples were run without the addition of PCBs. At a confluence of 80%, PCBs (20 μM each, dissolved in ethanol) were added and cells were incubated for 24 h before harvest of supernatants. Supernatants were diluted 1:2 with 80 μL acetate buffer 0.1 M (pH = 5.3). 100 μL of this dilution were further incubated with 100 μL of ammonium acetate buffer 0.1 M (pH = 5.3) and 5 μL of β-Glucuronidase/Arylsulfatase enzyme overnight in a drying oven at 37 °C for enzymatic hydrolysis to release conjugated compounds. 50 μL of a mix of internal standards (10 ng/mL) and 600 μL of methanol were added to the samples, then mixed by vortexing for 1 min and centrifuged for 10 min at 3400g. The individual supernatants were transferred to glass LC vials and evaporated to approximately 50 μL at 45 °C under a gentle stream of nitrogen. Finally, 0.1 mol/ L ammonium acetate buffer was added to a final volume of 100 μL and then transferred to an insert for analysis. […]
# CYP2E1 = CYP2E1 (Homo sapiens, UniProt P05181); assay: Metabolism in transgenic HEK293 cells expressing CYP2E1; conditions: 20 µM parent PCB, 24 h, supernatant
# Protocol: as §1
# (§2) Parallel samples were run without the addition of PCBs. At a confluence of 80%, PCBs (20 μM each, dissolved in ethanol) were added and cells were incubated for 24 h before harvest of supernatants. Supernatants were diluted 1:2 with 80 μL acetate buffer 0.1 M (pH = 5.3). 100 μL of this dilution were further incubated with 100 μL of ammonium acetate buffer 0.1 M (pH = 5.3) and 5 μL of β-Glucuronidase/Arylsulfatase enzyme overnight in a drying oven at 37 °C for enzymatic hydrolysis to release conjugated compounds. 50 μL of a mix of internal standards (10 ng/mL) and 600 μL of methanol were added to the samples, then mixed by vortexing for 1 min and centrifuged for 10 min at 3400g. The individual supernatants were transferred to glass LC vials and evaporated to approximately 50 μL at 45 °C under a gentle stream of nitrogen. Finally, 0.1 mol/ L ammonium acetate buffer was added to a final volume of 100 μL and then transferred to an insert for analysis.
# (§3) HEK293 cells overexpressing the respective CYP enzymes were seeded onto 6-well plates and were treated with or without 10 µM of the respective probe drug in DMEM medium for 24 hours at 37 °C and 5 % CO2. After incubation 200 µL DMEM were collected, cells were washed with PBS and adherent cells were lysed in 500 µL methanol for 20 minutes. Analytes were measured by LC-MS/MS either in methanol cell lysates or in DMEM supernatant.
# (§4) 50 µL of DMEM samples were protein precipitated by adding 200 µL of methanol and were centrifuged for 20 min, 17,000 g and 4°C. Supernatants were diluted in water or 40 % methanol according to dilution factor. Methanol cell lysates were diluted ½ with water and centrifuged for 20 min, 17,000 g and 4°C. 5 µL of the processed samples were injected for LC-MS analysis.
# CYP3A4 = CYP3A4 (Homo sapiens, UniProt P08684); assay: Metabolism in transgenic HEK293 cells expressing CYP3A4; conditions: 20 µM parent PCB, 24 h, supernatant
# Protocol: as §1, §2, §3, §4
# CYP2A6 = biological target: T2, CYP2A6 (Homo sapiens, UniProt P11509); assay: Metabolism in transgenic HEK293 cells expressing CYP2A6; assay type: in vitro ADME; design: V5-His (vector-encoded) (C); expressed in transfected cells; conditions: 20 µM parent PCB, 24 h; for Quantification of metabolites generated from PCB28, 52, and 101: supernatant; for Metabolite concentration formed, range across cell clones: HEK293CYP2A6 cell lines
# T2 sequence (P11509 1-494): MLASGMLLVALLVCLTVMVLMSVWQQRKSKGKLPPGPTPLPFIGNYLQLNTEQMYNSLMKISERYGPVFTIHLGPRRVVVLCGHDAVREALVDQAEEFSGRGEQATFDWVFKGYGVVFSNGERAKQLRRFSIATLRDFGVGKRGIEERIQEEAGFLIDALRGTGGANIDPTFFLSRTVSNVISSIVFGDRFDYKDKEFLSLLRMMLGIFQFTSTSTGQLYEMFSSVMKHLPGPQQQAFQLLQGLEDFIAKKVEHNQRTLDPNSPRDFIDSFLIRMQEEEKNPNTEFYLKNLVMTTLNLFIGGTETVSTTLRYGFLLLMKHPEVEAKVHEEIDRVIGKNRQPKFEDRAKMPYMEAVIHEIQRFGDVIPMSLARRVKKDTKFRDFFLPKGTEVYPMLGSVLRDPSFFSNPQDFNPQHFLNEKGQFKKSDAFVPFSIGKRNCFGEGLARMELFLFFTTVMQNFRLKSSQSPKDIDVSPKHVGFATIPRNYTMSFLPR
# Protocol: as §1, §2, §3, §4
# CYP1A2 = biological target: T3, CYP1A2 (Homo sapiens, UniProt P05177); assay: Metabolism in transgenic HEK293 cells expressing CYP1A2 (LC-MS/MS of supernatant)
# T3 sequence (P05177 1-516): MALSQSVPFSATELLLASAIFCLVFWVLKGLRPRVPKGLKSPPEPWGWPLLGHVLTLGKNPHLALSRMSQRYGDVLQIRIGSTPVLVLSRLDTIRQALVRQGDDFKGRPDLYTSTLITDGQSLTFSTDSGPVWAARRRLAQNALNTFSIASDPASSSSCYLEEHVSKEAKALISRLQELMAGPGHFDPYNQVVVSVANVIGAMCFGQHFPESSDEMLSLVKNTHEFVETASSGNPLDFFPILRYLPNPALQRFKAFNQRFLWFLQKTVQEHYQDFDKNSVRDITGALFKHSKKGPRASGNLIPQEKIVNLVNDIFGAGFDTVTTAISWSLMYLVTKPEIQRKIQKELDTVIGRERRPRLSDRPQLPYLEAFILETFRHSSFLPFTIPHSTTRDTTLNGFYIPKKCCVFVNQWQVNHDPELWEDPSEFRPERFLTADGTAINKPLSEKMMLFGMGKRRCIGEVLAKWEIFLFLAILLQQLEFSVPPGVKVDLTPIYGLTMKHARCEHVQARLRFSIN
# Protocol: as §1, §2, §3, §4
# CYP2E1, sequence (P05181 whole entry): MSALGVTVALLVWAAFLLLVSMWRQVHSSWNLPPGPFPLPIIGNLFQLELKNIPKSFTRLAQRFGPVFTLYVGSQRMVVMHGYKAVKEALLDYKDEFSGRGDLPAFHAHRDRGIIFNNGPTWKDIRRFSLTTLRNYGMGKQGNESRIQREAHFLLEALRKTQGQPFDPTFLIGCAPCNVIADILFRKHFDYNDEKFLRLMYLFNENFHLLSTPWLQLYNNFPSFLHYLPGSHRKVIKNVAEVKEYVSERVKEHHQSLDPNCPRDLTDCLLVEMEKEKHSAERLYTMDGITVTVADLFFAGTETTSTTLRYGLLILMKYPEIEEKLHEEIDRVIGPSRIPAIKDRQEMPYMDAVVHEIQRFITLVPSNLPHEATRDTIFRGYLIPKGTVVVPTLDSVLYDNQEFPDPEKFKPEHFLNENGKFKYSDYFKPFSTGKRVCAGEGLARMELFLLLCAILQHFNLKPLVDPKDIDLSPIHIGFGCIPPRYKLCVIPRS
# CYP3A4, sequence (P08684 whole entry): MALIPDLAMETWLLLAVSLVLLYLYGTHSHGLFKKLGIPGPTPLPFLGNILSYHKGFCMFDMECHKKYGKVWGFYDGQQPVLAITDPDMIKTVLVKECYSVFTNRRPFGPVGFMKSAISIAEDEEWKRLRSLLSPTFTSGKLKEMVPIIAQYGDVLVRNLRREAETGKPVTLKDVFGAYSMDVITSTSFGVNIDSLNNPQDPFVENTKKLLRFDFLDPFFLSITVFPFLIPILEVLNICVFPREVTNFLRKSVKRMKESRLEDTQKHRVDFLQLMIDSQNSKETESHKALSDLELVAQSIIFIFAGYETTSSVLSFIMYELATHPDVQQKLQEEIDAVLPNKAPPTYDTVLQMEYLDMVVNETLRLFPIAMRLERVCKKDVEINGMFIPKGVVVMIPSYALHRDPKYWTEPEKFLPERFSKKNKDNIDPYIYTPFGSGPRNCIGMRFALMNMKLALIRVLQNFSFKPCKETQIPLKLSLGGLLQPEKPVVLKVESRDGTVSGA
SMILES,Micronucleus formation compared to the negative control ethanol (HEK293CYP2A6 cells),"Quantification of metabolites generated from PCB28, 52, and 101 (CYP2C8; CYP2C8 Clone A3)","Quantification of metabolites generated from PCB28, 52, and 101 (CYP2C8; CYP2C8 Clone D8)","Quantification of metabolites generated from PCB28, 52, and 101 (CYP2C8; CYP2C8 Clone D9)","Quantification of metabolites generated from PCB28, 52, and 101 (CYP2E1; CYP2E1 Clone B4)","Quantification of metabolites generated from PCB28, 52, and 101 (CYP2E1; CYP2E1 Clone B5)","Quantification of metabolites generated from PCB28, 52, and 101 (CYP2E1; CYP2E1 Clone E6)","Quantification of metabolites generated from PCB28, 52, and 101 (CYP3A4; CYP3A4 Clone B4)","Quantification of metabolites generated from PCB28, 52, and 101 (CYP3A4; CYP3A4 Clone D10)","Quantification of metabolites generated from PCB28, 52, and 101 (CYP3A4; CYP3A4 Clone E6)","Quantification of metabolites generated from PCB28, 52, and 101 (CYP2A6; CYP2A6 Clone B7)","Quantification of metabolites generated from PCB28, 52, and 101 (CYP2A6; CYP2A6 Clone C4)","Quantification of metabolites generated from PCB28, 52, and 101 (CYP2A6; CYP2A6 Clone C5)","Metabolite concentration formed, range across cell clones (CYP2A6)","Metabolite concentration formed, range across cell clones (CYP1A2; HEK293CYP1A2 cell clones, 20 µM PCB28, 24 h)","Conversion product (CYP1A2; HEK293CYP1A2, 10 µM substrate, 24 h)"
"O=[N+]([O-])c1cc[n+]([O-])c2ccccc12 [4-nitroquinoline-(1)-oxide, reference compound]",consistent and significant elevation,,,,,,,,,,,,,,,
"Oc1cc(Cl)c(-c2cc(Cl)ccc2Cl)cc1Cl [4-OHCB52, 2,2′,5,5′-tetrachloro-4-biphenylol]",,<LOQ,"0,1 nM",<LOQ,"5,55 nM","8,9 nM","10,23 nM","0,23 nM","0,72 nM","0,54 nM","319,55 nM","1029,16 nM","30,78 nM",9.48 to 316.89 µg/L,,
"Oc1ccc(-c2ccc(Cl)cc2)c(Cl)c1Cl [4′-OHCB25, 2′,3′,4-trichloro-4′-biphenylol]",,,,,,,,,,,,,,,0.15–0.23 µg/L and 0.56–0.84 nM,
"Cn1c(=O)c2c(ncn2C)n(C)c1=O [Caffeine, reference compound]",,,,,,,,,,,,,,,,Paraxanthine
"Oc1cc(Cl)cc(-c2cc(Cl)ccc2Cl)c1Cl [3-OHCB52, 2,2′,5,5′-tetrachloro-3-biphenylol]",,<LOQ,"0,09 nM",<LOQ,"0,38 nM","0,59 nM","0,74 nM","0,21 nM","0,66 nM","0,45 nM","0,87 nM","0,75 nM",,0.23–0.27 µg/L and 0.74–0.87 nM,,
